Two molecules from patent publication US11564920B2, “5-heteroaryl-1H-pyrazol-3-amine derivative” (Sumitomo Pharma Co., Ltd., priority 2020, dated 2023) can be followed below.

What is called AUC(0-t) is exposure summed from dosing to a finite time, without extrapolation to infinity. A low value points to low exposure. By IC50 is commonly meant the concentration that gives 50% inhibition.

Data set [1] deals with Human bone marrow CD34 positive hematopoietic stem cells. The experiment in a line: Human bone marrow cell colony formation test (hemotoxicological evaluation test). It is filed as cell-based. As to conditions: 100 nM; for Colony count (/well), mean: 48 hours, then about 2 weeks culture. The procedure:
Human bone marrow CD34 positive hematopoietic stem cells were obtained from Lonza K. K. The frozen cells were thawed in a medium prepared by mixing a Methocult Express medium and a 10% fetal bovine serum with 1% penicillin/streptomycin containing RPMI 1640 medium at 9:1. 5000 cells were seeded per well in a 6 well plate and cultured overnight at […] in the presence of 5% CO2. The evaluated compound was added so that the final concentration of DMSO would be 0.1% and 100 nM, and the cells were cultured for 48 hours. The cells were retrieved and washed with PBS. ⅙ of the amount of cells was seeded in a 12 well plate and cultured for about. 2 weeks at 37° C. in the presence of 5% CO2. After completion of culture, the number of colonies formed was calculated using Thiazolyl blue tetrazolium bromide (MTT).

Data set [2] is described as follows: Pharmacokinetic test in mice. It is filed as in vivo. As to conditions: female, BALB/c, mouse, whole blood, iv, liposome formulations, 1.0 mg/kg i.v., trapezoidal method.
The test system of another data set is ES-2 cells. The experiment in a line: Cell growth suppression experiment. The class given is cell-based. Particulars: for IC50: Homo sapiens, 48 h, cultured for 2 days, read-out: IC50 (cell growth suppression, ranking).
Another data set has as its target RSK1 (Homo sapiens (Human), UniProt Q15418). The experiment in a line: Kinase selectivity test (HotSpot Full Panel Kinase profiling). The class given is biochemical. Particulars: 100 nM, ATP 10 μM; read-out: Residual activity (%) RSK1. The procedure:
(§1) Buffer: 20 mM HEPES, pH 7.5, 10 mM MgCl2, 2 mM […] (as needed), 1 mM EGTA, 0.02% Brij35, 0.02 mg/mL BSA, 0.1 mM Na3VO4, 2 mM DTT, 1% DMSO
(§2) Compound concentration: 100 nM

For a further data set, the target named is SIK2 (Homo sapiens (Human), UniProt Q9H0K1). The description is as above. It is filed as biochemical. As to conditions: 100 nM, ATP 10 μM; read-out: Residual activity (%) SIK2. The procedure: as §1, §2
A further data set deals with CAMK2A (Homo sapiens (Human), UniProt Q9UQM7). The data set is described as above. It is filed as biochemical. As to conditions: 100 nM, ATP 10 μM; read-out: Residual activity (%) CAMK2A. The procedure:
as §1, §2

Another data set concerns the target TRKC (Homo sapiens (Human), UniProt Q16288). The data set is described as above. The class given is biochemical. Particulars: 100 nM, ATP 10 μM; read-out: Residual activity (%) TRKC. The procedure: as §1, §2
The target of another data set is RSK2 (Homo sapiens (Human), UniProt P51812). Described as above. It is filed as biochemical. As to conditions: 100 nM, ATP 10 μM; read-out: Residual activity (%) RSK2. The procedure: as §1, §2
The target of a further data set is TNIK (Homo sapiens (Human), UniProt Q9UKE5). The data set is described as above. As to conditions: 100 nM, ATP 10 μM; read-out: Residual activity (%) TNIK. It is filed as biochemical. The procedure: as §1, §2
In a further data set the target is MARK4 (Homo sapiens (Human), UniProt Q96L34). Described as above. It is filed as biochemical. As to conditions: 100 nM, ATP 10 μM; read-out: Residual activity (%) MARK4 (MARKA [sic] in Table 32). The procedure: as §1, §2
The next data set addresses RSK3 (Homo sapiens (Human), UniProt Q15349). The description is as above. The class given is biochemical. As to conditions: 100 nM, ATP 10 μM; read-out: Residual activity (%) RSK3. The procedure:
as §1, §2

Another data set has as its target RSK4 (Homo sapiens (Human), UniProt Q9UK32). The data set is described as above. It is filed as biochemical. Particulars: 100 nM, ATP 10 μM; read-out: Residual activity (%) RSK4. The procedure: as §1, §2
A further data set concerns the target RET (Homo sapiens (Human), UniProt P07949). The description is as above. It is filed as biochemical. As to conditions: 100 nM, ATP 10 μM; read-out: Residual activity (%) RET. The procedure:
as §1, §2

In the next data set the target is MELK (Homo sapiens (Human), UniProt Q14680). Described as above. It is filed as biochemical. As to conditions: 100 nM, ATP 10 μM; read-out: Residual activity (%) MELK. The procedure: as §1, §2
The subject of data set [3] is Human bone marrow CD34 positive hematopoietic stem cells. The experiment in a line: Human bone marrow cell myeloid lineage differentiation induction test. It is filed as cell-based. Particulars: 3 nM. The procedure:
Human bone marrow CD34 positive hematopoietic stem cells were obtained from Lonza K. K. The frozen cells were thawed in a […] fetal bovine serum containing IMDM medium and suspended in a Complete hemaTox® Myeloid Medium. 1000 cells were seeded per well in a 96-well plate. The evaluated compound was added so that the final concentration of DMSO would be […] and 3 nM, and the cells were cultured for 7 days at 37° C. in the presence of 5% CO2. After completion of culture, half of the amount of cell suspension was retrieved from each well. The luminescence was measured using CellTiter-Glo® 3D Reagent (Promega, G968B) to calculate the cell survival percentage by the following equation. Cell survival percentage (%)=(measurement value of luminescence after 7 days of evaluated compound)/(measurement value of luminescence after 7 days of control group)×100

RSK4, sequence (Q9UK32 whole entry): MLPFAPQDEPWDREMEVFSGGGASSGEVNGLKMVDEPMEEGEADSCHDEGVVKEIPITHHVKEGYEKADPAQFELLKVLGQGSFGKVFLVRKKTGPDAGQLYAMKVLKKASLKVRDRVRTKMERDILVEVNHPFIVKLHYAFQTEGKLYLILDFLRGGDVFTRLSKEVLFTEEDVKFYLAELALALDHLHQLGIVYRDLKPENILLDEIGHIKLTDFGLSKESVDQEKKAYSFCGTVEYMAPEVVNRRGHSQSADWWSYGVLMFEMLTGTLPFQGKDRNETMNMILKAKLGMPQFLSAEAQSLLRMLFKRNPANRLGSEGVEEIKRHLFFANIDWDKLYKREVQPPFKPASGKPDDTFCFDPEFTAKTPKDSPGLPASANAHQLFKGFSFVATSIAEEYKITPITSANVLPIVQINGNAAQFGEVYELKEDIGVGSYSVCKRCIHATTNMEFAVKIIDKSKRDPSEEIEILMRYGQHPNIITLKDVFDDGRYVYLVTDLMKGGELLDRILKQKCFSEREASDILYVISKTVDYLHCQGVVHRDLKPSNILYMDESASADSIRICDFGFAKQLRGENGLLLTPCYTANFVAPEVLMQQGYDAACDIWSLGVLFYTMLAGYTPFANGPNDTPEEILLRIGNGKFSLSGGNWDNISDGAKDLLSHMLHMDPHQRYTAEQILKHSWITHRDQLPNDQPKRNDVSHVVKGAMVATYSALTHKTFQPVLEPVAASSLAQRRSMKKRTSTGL
RET, sequence (P07949 29-1114): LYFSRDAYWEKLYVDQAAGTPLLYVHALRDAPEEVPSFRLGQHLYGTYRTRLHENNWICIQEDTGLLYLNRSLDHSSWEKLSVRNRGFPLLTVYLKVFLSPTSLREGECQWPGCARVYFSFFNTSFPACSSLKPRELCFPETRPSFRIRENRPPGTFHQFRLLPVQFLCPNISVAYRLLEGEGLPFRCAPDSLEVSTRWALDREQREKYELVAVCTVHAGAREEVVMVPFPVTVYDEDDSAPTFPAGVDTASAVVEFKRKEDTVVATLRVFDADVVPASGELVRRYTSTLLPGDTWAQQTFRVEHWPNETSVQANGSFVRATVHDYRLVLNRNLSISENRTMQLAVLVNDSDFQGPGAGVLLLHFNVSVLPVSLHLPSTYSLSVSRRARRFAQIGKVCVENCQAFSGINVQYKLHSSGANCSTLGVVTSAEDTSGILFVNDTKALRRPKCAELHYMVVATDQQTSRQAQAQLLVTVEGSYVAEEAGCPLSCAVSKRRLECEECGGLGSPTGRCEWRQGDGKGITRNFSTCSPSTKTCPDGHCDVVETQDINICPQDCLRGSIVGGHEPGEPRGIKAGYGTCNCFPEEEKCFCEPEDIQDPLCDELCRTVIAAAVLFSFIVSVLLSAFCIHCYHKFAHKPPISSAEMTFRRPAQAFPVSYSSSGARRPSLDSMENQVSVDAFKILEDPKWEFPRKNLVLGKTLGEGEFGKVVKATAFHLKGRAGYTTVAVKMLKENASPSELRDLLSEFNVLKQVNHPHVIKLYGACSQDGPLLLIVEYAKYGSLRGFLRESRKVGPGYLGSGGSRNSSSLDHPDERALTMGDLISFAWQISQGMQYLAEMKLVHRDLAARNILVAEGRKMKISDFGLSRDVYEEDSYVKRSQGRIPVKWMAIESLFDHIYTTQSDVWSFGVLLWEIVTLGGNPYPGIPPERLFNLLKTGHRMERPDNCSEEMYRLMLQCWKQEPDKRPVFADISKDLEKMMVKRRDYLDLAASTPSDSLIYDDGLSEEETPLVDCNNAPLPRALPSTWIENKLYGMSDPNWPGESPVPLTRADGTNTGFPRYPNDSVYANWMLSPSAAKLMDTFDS
MELK, sequence (Q14680 whole entry): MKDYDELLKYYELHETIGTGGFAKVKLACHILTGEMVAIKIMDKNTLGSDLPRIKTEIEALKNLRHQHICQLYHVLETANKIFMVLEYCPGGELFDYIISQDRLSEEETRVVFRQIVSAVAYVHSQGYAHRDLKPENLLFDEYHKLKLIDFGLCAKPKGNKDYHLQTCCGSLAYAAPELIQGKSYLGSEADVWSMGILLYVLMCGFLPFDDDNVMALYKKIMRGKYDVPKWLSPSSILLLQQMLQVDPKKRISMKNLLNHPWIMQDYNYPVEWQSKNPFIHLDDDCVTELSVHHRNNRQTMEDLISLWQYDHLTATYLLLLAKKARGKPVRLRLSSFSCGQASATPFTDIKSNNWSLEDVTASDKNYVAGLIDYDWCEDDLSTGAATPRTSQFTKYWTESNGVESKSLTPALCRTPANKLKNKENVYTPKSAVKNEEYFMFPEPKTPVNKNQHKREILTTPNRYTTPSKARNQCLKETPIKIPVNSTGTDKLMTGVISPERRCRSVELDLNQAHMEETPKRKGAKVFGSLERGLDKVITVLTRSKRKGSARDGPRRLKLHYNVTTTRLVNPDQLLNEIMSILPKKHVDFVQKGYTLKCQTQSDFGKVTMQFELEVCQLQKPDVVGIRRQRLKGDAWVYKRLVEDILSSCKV
SIK2, sequence (Q9H0K1 whole entry): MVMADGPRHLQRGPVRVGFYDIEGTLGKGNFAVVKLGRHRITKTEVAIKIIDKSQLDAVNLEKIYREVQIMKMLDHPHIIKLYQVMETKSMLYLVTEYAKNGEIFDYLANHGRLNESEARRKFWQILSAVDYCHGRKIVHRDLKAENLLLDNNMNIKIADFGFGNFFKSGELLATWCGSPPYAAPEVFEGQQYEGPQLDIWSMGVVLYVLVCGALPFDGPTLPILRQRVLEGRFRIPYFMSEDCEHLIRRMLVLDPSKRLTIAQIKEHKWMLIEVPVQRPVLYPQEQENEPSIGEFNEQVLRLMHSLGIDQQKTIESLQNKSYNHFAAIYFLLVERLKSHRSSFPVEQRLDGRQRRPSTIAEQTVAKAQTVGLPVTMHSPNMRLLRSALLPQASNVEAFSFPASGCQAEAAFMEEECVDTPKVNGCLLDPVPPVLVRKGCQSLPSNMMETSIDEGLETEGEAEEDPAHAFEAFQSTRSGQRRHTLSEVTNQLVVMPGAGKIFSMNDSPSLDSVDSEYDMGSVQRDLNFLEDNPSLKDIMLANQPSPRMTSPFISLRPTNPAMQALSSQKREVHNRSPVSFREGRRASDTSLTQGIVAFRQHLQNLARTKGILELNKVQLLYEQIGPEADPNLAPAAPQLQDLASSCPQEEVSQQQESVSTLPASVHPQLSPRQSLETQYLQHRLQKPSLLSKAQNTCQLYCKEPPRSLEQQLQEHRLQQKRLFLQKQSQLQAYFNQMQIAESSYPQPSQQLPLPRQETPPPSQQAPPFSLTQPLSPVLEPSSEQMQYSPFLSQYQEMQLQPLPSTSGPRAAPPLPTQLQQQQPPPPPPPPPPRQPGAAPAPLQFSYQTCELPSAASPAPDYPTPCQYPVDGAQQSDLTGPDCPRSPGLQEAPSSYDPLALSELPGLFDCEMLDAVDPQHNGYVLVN
RSK1, sequence (Q15418 whole entry): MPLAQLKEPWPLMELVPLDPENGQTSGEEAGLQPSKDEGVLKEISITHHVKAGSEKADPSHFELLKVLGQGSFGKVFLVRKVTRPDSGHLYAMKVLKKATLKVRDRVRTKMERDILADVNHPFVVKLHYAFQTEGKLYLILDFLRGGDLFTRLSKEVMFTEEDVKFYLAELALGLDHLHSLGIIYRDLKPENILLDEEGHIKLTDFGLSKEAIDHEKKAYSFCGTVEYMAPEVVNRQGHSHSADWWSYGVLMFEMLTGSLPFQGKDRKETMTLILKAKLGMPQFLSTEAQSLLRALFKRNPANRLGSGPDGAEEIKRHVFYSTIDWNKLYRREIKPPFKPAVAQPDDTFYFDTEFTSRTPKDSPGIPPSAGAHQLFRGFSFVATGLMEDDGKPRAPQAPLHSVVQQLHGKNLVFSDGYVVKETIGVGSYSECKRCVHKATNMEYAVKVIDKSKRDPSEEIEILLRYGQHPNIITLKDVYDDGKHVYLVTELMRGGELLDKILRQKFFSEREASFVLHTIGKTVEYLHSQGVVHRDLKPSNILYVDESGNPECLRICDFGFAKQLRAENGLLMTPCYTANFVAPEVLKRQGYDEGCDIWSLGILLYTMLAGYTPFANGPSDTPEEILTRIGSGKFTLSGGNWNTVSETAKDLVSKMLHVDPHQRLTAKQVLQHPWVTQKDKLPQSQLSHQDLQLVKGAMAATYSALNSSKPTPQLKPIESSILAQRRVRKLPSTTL
RSK3, sequence (Q15349 whole entry): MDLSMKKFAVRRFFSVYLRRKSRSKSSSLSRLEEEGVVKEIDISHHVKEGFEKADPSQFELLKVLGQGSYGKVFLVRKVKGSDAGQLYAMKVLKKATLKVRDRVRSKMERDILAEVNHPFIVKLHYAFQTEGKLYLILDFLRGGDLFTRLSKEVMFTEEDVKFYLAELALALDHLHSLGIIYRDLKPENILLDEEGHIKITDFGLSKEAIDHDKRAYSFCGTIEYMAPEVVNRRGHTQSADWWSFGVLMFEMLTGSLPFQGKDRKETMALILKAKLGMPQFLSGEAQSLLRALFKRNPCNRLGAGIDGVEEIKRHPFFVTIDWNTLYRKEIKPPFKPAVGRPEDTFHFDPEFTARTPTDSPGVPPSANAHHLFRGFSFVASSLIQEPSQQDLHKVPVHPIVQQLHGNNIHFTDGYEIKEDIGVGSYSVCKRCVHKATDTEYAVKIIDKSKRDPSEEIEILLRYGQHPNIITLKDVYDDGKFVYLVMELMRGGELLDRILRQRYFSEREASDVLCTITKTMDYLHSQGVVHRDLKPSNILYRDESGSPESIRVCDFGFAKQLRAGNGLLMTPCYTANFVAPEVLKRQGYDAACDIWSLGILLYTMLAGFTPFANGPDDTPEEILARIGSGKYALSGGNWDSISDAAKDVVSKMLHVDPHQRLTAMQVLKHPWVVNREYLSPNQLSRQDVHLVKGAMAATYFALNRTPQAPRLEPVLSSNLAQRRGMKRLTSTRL

For the molecule `COc1ccnc(OCCCN)c1-c1cc(Nc2cnc(C#N)cn2)n[nH]1` [Example 1, 5-({5-[2-(3-aminopropoxy)-4-methoxypyridin-3-yl]-1H-pyrazol-3-yl}amino)pyrazine-2-carbonitrile], the “effect on human bone marrow cell colony formation (in words)” value in data set [1] was “does not exhibit an effect of suppressing human bone marrow colony formation”. For the same molecule, the “Colony count (/well), mean” value in data set [1] is 34 /well. The molecule also showed an AUC(0-t) in [2] of 447 µg·h/mL. Moreover, the IC50 with ES-2 cells was < 0.03 µM. Further, the “cell growth suppression effect (in words)” value in the data set on ES-2 cells (compared with prexasertib) is recorded as “excellent cell growth suppression effect that is equivalent to that of prexasertib”. Also, the remaining activity at 0.1 µM on RSK1 came to 8.51%; at SIK2, 14.1%; on CAMK2A, 13.9%; at TRKC, 17.4%; on RSK2 it was 4.32%; at TNIK it was 17.8%. Moreover, the remaining activity at 0.1 µM on MARK4 came to 24.1%; at RSK3, 3.91%; at RSK4, 9.05%; at RET, 19%; on MELK it was 17.2%. Also, the “effect on myeloid cells induced to differentiate from human bone marrow cells (in words)” value in [3] is “does not exhibit an effect of suppressing myeloid cells induced to differentiate from human bone marrow cells”.
For the molecule `COc1cccc(OCCCN)c1-c1cc(Nc2cnc(C#N)cn2)n[nH]1` [Prexasertib, reference compound], in data set [1], the “effect on human bone marrow cell colony formation (in words)” value is listed as “exhibits an effect of suppressing human bone marrow cell colony formation”. Besides, the “Colony count (/well), mean” value in [1] is recorded as 19 /well. The molecule further had an AUC(0-t) in [2] of 236 µg·h/mL. For the same molecule, the IC50 in the data set with ES-2 cells was < 0.03 µM. The remaining activity at 0.1 µM worked out at 2.23% at RSK1; 2.62% at SIK2; 2.52% on CAMK2A; 12.7% at TRKC; 0.98% at RSK2; 7.76% at TNIK. The remaining activity at 0.1 µM on MARK4 was 10.2%; on RSK3 it was 1.69%; on RSK4, 4.78%; at RET, 7.12%; at MELK, 11.4%. For the same molecule, the “effect on myeloid cells induced to differentiate from human bone marrow cells (in words)” value in [3] is on record as “exhibited an effect of suppressing myeloid cells induced to differentiate from human bone marrow cells”.
